Assay results from patent publication EP3683219A1, “COMPOUND INHIBITING BUTYRYLCHOLINESTERASE” (Julius-Maximilians-Universität Würzburg, priority 2019, dated 2020).
Like-named read-outs stand apart in the source and are kept apart here.

How the values were obtained:
hBChE [1] = molecular target: T1, hBChE (Homo sapiens, UniProt P06276); assay: biochemical; type: biochemical; conditions: for Selectivity index (IC50 hAChE/IC50 hBChE): hAChE over hBChE; for IC50 values (hBChE), in words: linker of 4 methylene groups; for fold lower activity than heptyl carbamate 7 (IC50 hBChE): compared with compound 7
T1 sequence (P06276 29-602): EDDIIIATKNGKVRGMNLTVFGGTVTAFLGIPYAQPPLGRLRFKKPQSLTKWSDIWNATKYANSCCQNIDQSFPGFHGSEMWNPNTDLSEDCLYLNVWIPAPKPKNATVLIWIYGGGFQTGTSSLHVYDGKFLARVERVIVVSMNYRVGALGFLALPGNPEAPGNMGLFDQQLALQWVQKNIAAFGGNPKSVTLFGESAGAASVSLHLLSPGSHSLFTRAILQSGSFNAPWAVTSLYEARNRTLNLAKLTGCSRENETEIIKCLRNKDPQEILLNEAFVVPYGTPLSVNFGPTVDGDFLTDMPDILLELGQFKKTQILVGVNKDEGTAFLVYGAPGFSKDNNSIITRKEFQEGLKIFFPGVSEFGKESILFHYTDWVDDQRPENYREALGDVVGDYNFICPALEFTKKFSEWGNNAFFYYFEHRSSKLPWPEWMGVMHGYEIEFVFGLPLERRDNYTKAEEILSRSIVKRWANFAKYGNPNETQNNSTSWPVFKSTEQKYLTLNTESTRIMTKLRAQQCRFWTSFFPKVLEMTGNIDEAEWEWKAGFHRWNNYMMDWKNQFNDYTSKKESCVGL
Experimental: (§1) For evaluation of enzyme inhibition, Ellman's colorimetric assay was conducted as described in Ellman, G. L., Arch. Biochem. Biophys 1958, 74, 443-450 and Ellman, G. L. et al., Biochem. Pharmacol. 1961, 7, 88-95. Therefor, 5,5'-dithiobis-(2-nitrobenzoic acid) (DTNB) solution, respective Cholinesterase (ChE) and inhibitor were incubated together and enzyme activity was measured after 20 min. The long incubation time was needed to allow the carbamate transfer between ChE and inhibitor.
(§2) The carbamate residue was altered systematically by changing residues in the terminal position of carbamate moiety and different flexible alkylene linkers were introduced. […] Nevertheless, it must be noted that IC50 values only serve as a first indicator of inhibitor affinity and selectivity. Due to the chemical reaction of carbamate transfer the enzyme inhibition is strongly time dependent. […]

hAChE = hAChE (Homo sapiens, UniProt P22303); assay: Ellman's colorimetric assay, inhibition of hAChE; type: biochemical; conditions: for inhibition at 25 µM / inhibition at 100 µM: read-out: inhibition of hAChE; for IC50 / plC50 ± SEM (hAChE): enzyme activity measured after 20 min incubation
Chain of hAChE (P22303 32-614): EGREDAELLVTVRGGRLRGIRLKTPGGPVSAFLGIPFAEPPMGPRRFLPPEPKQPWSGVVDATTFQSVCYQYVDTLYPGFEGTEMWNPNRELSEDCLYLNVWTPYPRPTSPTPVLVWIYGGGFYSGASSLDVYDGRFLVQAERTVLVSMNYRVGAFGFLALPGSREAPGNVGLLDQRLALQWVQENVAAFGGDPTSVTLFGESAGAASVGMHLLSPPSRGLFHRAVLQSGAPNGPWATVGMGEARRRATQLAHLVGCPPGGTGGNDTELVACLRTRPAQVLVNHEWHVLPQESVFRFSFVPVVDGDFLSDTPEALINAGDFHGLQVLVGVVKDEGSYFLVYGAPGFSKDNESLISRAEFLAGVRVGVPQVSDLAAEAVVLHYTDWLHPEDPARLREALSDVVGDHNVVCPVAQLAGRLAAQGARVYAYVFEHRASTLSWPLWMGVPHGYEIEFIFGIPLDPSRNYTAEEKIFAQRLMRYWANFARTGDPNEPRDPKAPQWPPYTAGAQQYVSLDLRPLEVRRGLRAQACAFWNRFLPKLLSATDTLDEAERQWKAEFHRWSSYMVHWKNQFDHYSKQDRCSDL
Experimental: as §1, §2

hBChE [2] = molecular target: T1, hBChE; assay: Carbamoylation kinetics on hBChE (time-dependent inhibition, Kc and k3); type: biochemical; conditions: for k3 [min^-1] hBChE: carbamoylation rate constant; for Kd: carbamoylation, pre-equilibrium constant
Description: As carbamate based inhibitors (C-X) show a pseudo irreversible manner of binding, the IC50 values must be seen critically because two chemical reactions determine them: Carbamate (C) transfer onto the enzyme (E) and carbamate hydrolysis. So, the Kc values, k3 and k4 rate constants according to below formula were investigated for some representative compounds (c.f. Fig. 3 and Fig. 4). [formula]
The mechanism of enzyme inhibition can be divided into three steps: In a pre-equilibrium, the carbamate based inhibitor C-X is bound to the enzyme E and a complex (EC-X) is formed reversible and can be characterized with Kc. Then the carbamate C is transferred onto the enzyme E and binds covalently to form E-C with the rate constant k3 while carrier scaffold X is released. Then E-C is hydrolyzed and enzyme activity is recovered and the amine C' is released with the rate constant k4, also called decarbamoylation rate.
For the determination of Kc and k3 a similar experimental setup was used compared to the evaluation of IC50 values, whereas enzyme activity was measured at various time points after addition of inhibitor.
A = A0 ⋅e^(−kobs ⋅t) + A∞ [formula]
Plotting the enzyme activity (in %) against the incubation times, lead to nonlinear time-dependent inhibition curves for the respective inhibitor concentrations whereby kobs can be determined with an exponential fit correspondent to equation (I).
Furthermore, a hyperbolic curve is obtained, plotting the rate constant kobs against the inhibitor concentration [I], which is described by equation (II), with the substrate concentration [S] and the Michaelis-Menten constant KM. kobs = (k3 ⋅[I])/(KC ⋅(1+([S])/(KM)) + [I]) [formula]
This equation (II) can be rearranged to the reciprocal of kobs, to get a linear plot: (1)/(kobs) = (KC ⋅(1+([S])/(KM)))/(k3)⋅(1)/([I]) + (1)/(k3) [formula]
Since the substrate butyrylthiocholine iodide is not added directly to the enzyme and the inhibitor, but after the incubation of enzyme with inhibitor, [S] can be set to zero, leading to Michaelis-Menten like equation IV. (1)/(kobs) = (KC)/(k3)⋅(1)/([I]) + (1)/(k3) [formula]
Relating to the linear equation (IV), KC can be established from the slope and carbamoylation rate constant k3 from the y-intercept.
As a chemical reaction is taking place, Kc must be seen as a 'real' measure for quantification of enzyme inhibitor interactions. Due to the high costs in measurements on hBChE only some representative compounds were chosen to evaluate also in kinetic studies based on the results from IC50 measurements (table 3). Table 3. Kinetic values for carbamoylation on hBChE for selected representative compounds

hBChE [3] = molecular target: T1, hBChE; assay: Decarbamoylation from hBChE, dilution experiments (recovery of enzyme activity, k4); type: biochemical; conditions: decarbamoylation rate, after 1 h incubation and 1:1000 dilution
Experimental: To further investigate the presence and nature of a peripheral binding site, also the hydrolysis of carbamate and the resulting release of the inhibitor from the enzyme was investigated by measuring the time dependent recovery of enzyme activity. To measure the decarbamoylation rate k4, dilution experiments were performed with hBChE following the procedure described in Sawatzky, E. et al., ChemMedChem 2016, 11, 1540-1550 and in Bartolucci, C. et al., Biochem. J. 2012, 444, 269-277. A high concentration of enzyme and inhibitor where incubated for 1 h. The concentration of inhibitor was chosen, such that > 85% of hBChE was inhibited through carbamate transfer. Then the mixture was diluted with buffer 1:1000 to a concentration at which the enzyme is not further carbamoylated. Due to the hydrolysis and release of the carbamate from the catalytic active serine enzyme activity was recovered slowly. This regeneration of the enzyme was monitored at different time points after the dilution. […] A = (1−e^(k4 ⋅t))⋅(1−A0) + A0 [formula] Table 4. Kinetic values for decarbamoylation from hBChE of selected compounds

[4] = tested on: Aβ25-35-induced spontaneous alternation deficits; assay: Spontaneous alternation test in the Y-maze, Aβ25-35-injected mice; type: in vivo, male Swiss mice; conditions: 0.3-3 mg/kg ip o.d. day 1 to 7; Y-maze day 8
Experimental: 2013, 38, pages 1706-1723.
AD-like cognitive dysfunctions were induced in male Swiss mice, 6 weeks old, weighing 31-36 g by intracerebroventricular (icv) injection of the oligomerized Aβ25-35 peptide into the mouse brain on day 1.
Compounds were weighed, dissolved in pure DMSO at a concentration of 1 mg/ml and diluted into final test concentrations with saline. The final percentage of DMSO in saline was 60% for all compounds. Vehicle solution used for control groups was 60% DMSO in saline. Compounds were injected intraperitoneally (ip) from day 1 to 7 and behavioral studies were conducted between day 8 and 10. Spatial working memory was evaluated using a spontaneous alternation test in a Y-maze on day 8. The Y-maze is made of grey polyvinylchloride. Each arm is 40 cm long, 13 cm high, 3 cm wide at the bottom, 10 cm wide at the top, and converging at an equal angle. Each mouse is placed at the end of one arm and allowed to explore the maze freely for 8 min. The sequence of arm entries (including possible returns into the same arm) was checked visually and noted down. If the mouse enters all three arms on consecutive occasion, this is defined as an alternation. Therefore, the total number of arm entries minus two is also the maximum number of alternations. The percentage of alternation was calculated as (actual alternations / maximum alternations) x 100. Parameters for the evaluation of behavior are given as the percentage of alternation (memory index) and a total number of arm entries (exploration index).
Figs. 7a-h show the effect of the compounds on Aβ25-35-induced spontaneous alternation deficits in mice. […] Figs. 7a, c, e, g: spontaneous alternation performance; Figs. 7b, d, f, h: number of arm entries in the Y-maze test performed at day 8.

[5] = tested on: Aβ25-35-induced passive avoidance impairments; assay: Step-through passive avoidance test, Aβ25-35-injected mice; type: in vivo, male Swiss mice; conditions: 0.3-3 mg/kg ip o.d. day 1 to 7; retention day 10
[6] = enzyme activity measured after 20 min incubation
[7] = enzyme activity measured after 20 min incubation, read-out: IC50 hBChE

SMILES | plC50 ± SEM (hBChE) (hBChE [1]; [6]) | IC50 (hBChE [1]; [7]) | Selectivity index (IC50 hAChE/IC50 hBChE) (hBChE [1]) | k3 [min^-1] hBChE (hBChE [2]) | Kd (hBChE [2]) | k4 (hBChE [3]) | other results
CN1c2ccc(OC(=O)NCCCCCCCCCCN3CCc4ccccc4C3)cc2CN2CCc3ccccc3C21 (stereo not shown) [Compound 19l] | 7.38 ±0.04 | 41.8 nM | >1000 | 0.25 ± 0.04 min⁻¹ | 5.68 ± 2.19 nM |  | inhibition at 10 µM (hAChE): 15%; Kc values (hBChE), in words (hBChE [2]): one-digit nanomolar range
CN1c2ccc(OC(=O)NCCCCN3CCc4ccccc4C3)cc2CN2CCc3ccccc3C21 (stereo not shown) [Compound 19i] | 6.72 ± 0.06 | 192 nM | >100 |  |  | 0.028 ± 0.001 h⁻¹ | IC50 values (hBChE), in words (hBChE [1]): two-digit nanomolar; inhibition at 10 µM (hAChE): 16%
CN1c2ccc(OC(=O)NCCCCCCn3ccnc3)cc2CN2CCc3ccccc3C21 (stereo not shown) [Compound 19n] | 7.88 ± 0.06 | 13.3 nM | >1000 | 0.31 ± 0.15 min⁻¹ | 13.1 ± 14.4 nM | 0.82 ± 0.03 h⁻¹ | inhibition at 25 µM (hAChE; 25 µM): 18%; Kc values (hBChE), in words (hBChE [2]): one-digit nanomolar range
CN1c2ccc(OC(=O)NCCCCCCN3CCNCC3)cc2CN2CCc3ccccc3C21 (stereo not shown) [Compound 19r] | 7.09 ± 0.03 | 80.6 nM | >100 | 0.32 ± 0.13 min⁻¹ | 121 ± 116 nM | 1.44 ± 0.07 h⁻¹ | inhibition at 25 µM (hAChE; 25 µM): 16%
CN1c2ccc(OC(=O)NCCCN3CCOCC3)cc2CN2CCc3ccccc3C21 (stereo not shown) [Compound 19b] | 6.03 ± 0.02 | 938 nM | >100 |  |  |  | inhibition at 100 µM (hAChE; 100 µM): 13%
CN1c2ccc(OC(=O)NCCCN3CCc4ccccc4C3)cc2CN2CCc3ccccc3C21 (stereo not shown) [Compound 19h] | 5.94 ± 0.05 | 1160 nM | >10 |  |  |  | inhibition at 10 µM (hAChE): 12%
CN1c2ccc(OC(=O)NCCCCCCn3cnc4ccccc43)cc2CN2CCc3ccccc3C21 (stereo not shown) [Compound 19m] | 8.13 ± 0.04 | 7.4 nM | >1000 | 0.26 ± 0.09 min⁻¹ | 7.7 ± 4.6 nM | 0.45 ± 0.04 h⁻¹ | inhibition at 25 µM (hAChE; 25 µM): 44%; Kc values (hBChE), in words (hBChE [2]): one-digit nanomolar range
CN1c2ccc(OC(=O)NCCCCCCN3CCN(C(=O)OC(C)(C)C)CC3)cc2CN2CCc3ccccc3C21 (stereo not shown) [Compound 19q] |  | 123 nM | >100 | 0.70 ± 0.31 min⁻¹ | 1550 ± 827 nM |  | IC50 (hBChE [1]): 794 nM; inhibition at 25 µM (hAChE): 15%
CN1c2ccc(OC(=O)NCCN3CCc4ccccc4C3)cc2CN2CCc3ccccc3C21 (stereo not shown) [Compound 19g] | 5.76 ± 0.05 | 1720 nM | >10 | >20 min⁻¹ | > 200000 nM |  | inhibition at 10 µM (hAChE): 10%
CN1c2ccc(OC(=O)NCCCCCCN3CCCCC3)cc2CN2CCc3ccccc3C21 (stereo not shown) [Compound 19p] | 7.08 ± 0.04 | 83.7 nM | 14 |  |  | 0.129 ± 0.006 h⁻¹ | fold lower activity than heptyl carbamate 7 (IC50 hBChE) (hBChE [1]): approximately 10 fold; IC50 (hAChE): 1200 nM; plC50 ± SEM (hAChE) (hAChE): 5.91 ± 0.03
CN1c2ccc(O)cc2CN2CCc3ccccc3C21 (stereo not shown) [Compound 13, reference compound] |  |  |  |  |  |  | BChE inhibition, in words (hBChE [1]): lacking BChE inhibition; effect on Aβ25-35-induced spontaneous alternation deficits [4]: not active; effect on Aβ25-35-induced passive avoidance deficits (step-through latency, retention) [5]: not active
CN1c2ccc(OC(=O)NCCCCCCCCCCN3CCOCC3)cc2CN2CCc3ccccc3C21 (stereo not shown) [Compound 19f] | 7.94 ± 0.07 | 11.5 nM | >1000 |  |  |  | inhibition at 100 µM (hAChE; 100 µM): 25%
CN1c2ccc(OC(=O)NCCCCCCCCN3CCc4ccccc4C3)cc2CN2CCc3ccccc3C21 (stereo not shown) [Compound 19k] | 7.49 ± 0.03 | 32.6 nM | >1000 |  |  | 0.83 ± 0.06 h⁻¹ | inhibition at 10 µM (hAChE): 11%
CN1c2ccc(OC(=O)NCCCCCCCCN3CCOCC3)cc2CN2CCc3ccccc3C21 (stereo not shown) [Compound 19e] |  | 19.8 nM | >1000 |  |  | 1.58 ± 0.15 h⁻¹ | IC50 (hBChE [1]): 85.1 nM; inhibition at 100 µM (hAChE): 22%
CN1c2ccc(OC(=O)NCCCCCCN3CCCC3)cc2CN2CCc3ccccc3C21 (stereo not shown) [Compound 19o] |  | 34.3 nM | 26 |  |  | 0.98 ± 0.04 h⁻¹ | IC50 (hBChE [1]): 339 nM; fold lower activity than heptyl carbamate 7 (IC50 hBChE) (hBChE [1]): approximately 10 fold; IC50 (hAChE): 880 nM; plC50 ± SEM (hAChE) (hAChE): 6.06 ± 0.03
CN1c2ccc(OC(=O)NCCN3CCOCC3)cc2CN2CCc3ccccc3C21 (stereo not shown) [Compound 19a] | 5.11 ± 0.04 | 7770 nM | >10 |  |  |  | inhibition at 100 µM (hAChE; 100 µM): 17%
CN1c2ccc(OC(=O)NCCCCN3CCOCC3)cc2CN2CCc3ccccc3C21 (stereo not shown) [Compound 19c] | 7.30 ± 0.02 | 50.6 nM | >1000 |  |  | 0.48 ± 0.06 h⁻¹ | IC50 values (hBChE), in words (hBChE [1]): two-digit nanomolar; inhibition at 100 µM (hAChE; 100 µM): 13%
